Test results reported in EP4635500A1, “THERAPEUTIC AGENT FOR BACTERIAL INFECTION” (Sumitomo Pharma Co., Ltd., priority 2022, dated 2024).
Values after ≈ are worked out from the molar mass of the structure shown. Read-outs that look alike come from different tables or passages of the source.

System: P. aeruginosa
Assay: MIC, broth microdilution, CDC/FDA Antibiotic Resistance Isolate Bank (Example 7, Tables 10, 15)
Format: cell-based
Conditions: Pseudomonas aeruginosa; for MIC: read-out: MIC

Work on C[C@@H](O)[C@H]1C(=O)N2C(C(=O)O)=C(S[C@@H]3CN[C@H](C(=O)N(C)C)C3)[C@H](C)[C@H]12 [MEPM, meropenem] yielded an MIC (KUB No. 5684, AR Bank #251, no carbapenemase gene) of 1 µg/mL (≈ 2.61 µM), an MIC (KUB No. 5685, AR Bank #252, no carbapenemase gene) of 2 µg/mL (≈ 5.22 µM) and an MIC (KUB No. 5686, AR Bank #253, no carbapenemase gene) of 0.5 µg/mL (≈ 1.3 µM). It also gave an MIC (KUB No. 5687, AR Bank #254, VIM-2) of 64 µg/mL (≈ 167 µM), an MIC (KUB No. 5689, AR Bank #256, no carbapenemase gene) of 2 µg/mL (≈ 5.22 µM) and an MIC (KUB No. 5691, AR Bank #258, no carbapenemase gene) of 2 µg/mL (≈ 5.22 µM). For the same molecule, the MIC (KUB No. 5692, AR Bank #259, no carbapenemase gene) was 0.5 µg/mL (≈ 1.3 µM), the MIC (KUB No. 5694, AR Bank #261, no carbapenemase gene) was 0.5 µg/mL (≈ 1.3 µM) and the MIC (KUB No. 5695, AR Bank #262, no carbapenemase gene) was 0.5 µg/mL (≈ 1.3 µM). The MIC (KUB No. 5696, AR Bank #263, no carbapenemase gene) was ≤ 0.25 µg/mL, the MIC (KUB No. 5697, AR Bank #264, no carbapenemase gene) was 2 µg/mL (≈ 5.22 µM) and the MIC (KUB No. 5698, AR Bank #265, no carbapenemase gene) was 8 µg/mL (≈ 20.9 µM). The MIC (KUB No. 5699, AR Bank #266, no carbapenemase gene) was 8 µg/mL (≈ 20.9 µM), the MIC (KUB No. 5700, AR Bank #267, no carbapenemase gene) was 2 µg/mL (≈ 5.22 µM) and the MIC (KUB No. 5701, AR Bank #268, no carbapenemase gene) was 16 µg/mL (≈ 41.7 µM). For the same molecule, the MIC (KUB No. 5702, AR Bank #269, no carbapenemase gene) was 8 µg/mL (≈ 20.9 µM), the MIC (KUB No. 5703, AR Bank #270, no carbapenemase gene) was 2 µg/mL (≈ 5.22 µM) and the MIC (KUB No. 5704, AR Bank #271, no carbapenemase gene) was 8 µg/mL (≈ 20.9 µM). It also gave an MIC (KUB No. 5705, AR Bank #272, no carbapenemase gene) of 2 µg/mL (≈ 5.22 µM), an MIC (KUB No. 5747, AR Bank #351, no carbapenemase gene) of 16 µg/mL (≈ 41.7 µM) and an MIC (KUB No. 5749, AR Bank #353, GES-1) of 16 µg/mL (≈ 41.7 µM). The MIC (KUB No. 5751, AR Bank #355, no carbapenemase gene) was 8 µg/mL (≈ 20.9 µM), the MIC (KUB No. 5752, AR Bank #356, KPC-2) was 32 µg/mL (≈ 83.4 µM) and the MIC (KUB No. 5754, AR Bank #358, no carbapenemase gene) was 8 µg/mL (≈ 20.9 µM). The MIC (KUB No. 5755, AR Bank #359, no carbapenemase gene) was 8 µg/mL (≈ 20.9 µM), the MIC (KUB No. 5756, AR Bank #360, no carbapenemase gene) was 16 µg/mL (≈ 41.7 µM) and the MIC (KUB No. 5785, AR Bank #439, IMP-18) was 64 µg/mL (≈ 167 µM). The MIC (KUB No. 5786, AR Bank #440, no carbapenemase gene) was 8 µg/mL (≈ 20.9 µM), the MIC (KUB No. 5787, AR Bank #441, KPC-2) was 32 µg/mL (≈ 83.4 µM) and the MIC (KUB No. 5788, AR Bank #443, no carbapenemase gene) was 16 µg/mL (≈ 41.7 µM). The MIC (KUB No. 5791, AR Bank #447, no carbapenemase gene) was 2 µg/mL (≈ 5.22 µM), the MIC (KUB No. 5793, AR Bank #449, no carbapenemase gene) was 16 µg/mL (≈ 41.7 µM) and the MIC (KUB No. 5798, AR Bank #455, no carbapenemase gene) was 16 µg/mL (≈ 41.7 µM). For the same molecule, the MIC (KUB No. 5799, AR Bank #456, no carbapenemase gene) was 64 µg/mL (≈ 167 µM), the MIC (KUB No. 5801, AR Bank #458, no carbapenemase gene) was 1 µg/mL (≈ 2.61 µM) and the MIC (KUB No. 5802, AR Bank #459, no carbapenemase gene) was 16 µg/mL (≈ 41.7 µM). For the same molecule, the MIC (KUB No. 5804, AR Bank #862, no carbapenemase gene) was 8 µg/mL (≈ 20.9 µM), the MIC (KUB No. 5806, AR Bank #864, no carbapenemase gene) was 64 µg/mL (≈ 167 µM) and the MIC (KUB No. 5813, AR Bank #508, no carbapenemase gene) was 16 µg/mL (≈ 41.7 µM). For the same molecule, the MIC (KUB No. 5815, AR Bank #510, no carbapenemase gene) was 0.5 µg/mL (≈ 1.3 µM), the MIC (KUB No. 5817, AR Bank #512, no carbapenemase gene) was 16 µg/mL (≈ 41.7 µM) and the MIC (KUB No. 5818, AR Bank #513, no carbapenemase gene) was 32 µg/mL (≈ 83.4 µM). For the same molecule, the MIC (KUB No. 5820, AR Bank #515, no carbapenemase gene) was 32 µg/mL (≈ 83.4 µM), the MIC (KUB No. 5821, AR Bank #516, KPC-2) was 64 µg/mL (≈ 167 µM) and the MIC (KUB No. 5831, AR Bank #526, no carbapenemase gene) was 8 µg/mL (≈ 20.9 µM). It also gave an MIC (KUB No. 5832, AR Bank #527, no carbapenemase gene) of 16 µg/mL (≈ 41.7 µM), an MIC (KUB No. 5833, AR Bank #528, no carbapenemase gene) of 8 µg/mL (≈ 20.9 µM) and an MIC (KUB No. 5834, AR Bank #529, no carbapenemase gene) of 8 µg/mL (≈ 20.9 µM). The MIC50 (96 strains of P. aeruginosa) was 16 µg/mL (≈ 41.7 µM) and the MIC80 (96 strains of P. aeruginosa) was 64 µg/mL (≈ 167 µM).
